Experimental data published in patent US20210038579A1, “Treatment Of Patients With Classic Fabry Disease” (Amicus Therapeutics, Inc., priority 2018, published 2021).
Where a chain is given by its changes, count along the chain named. Values joined by “and” are separate entries in the source; they are usually repeats but may differ in a detail not shown here. Equal values may be shown once.

How the values were obtained:
Experiment in all cases: HEK assay: α-Gal A activity in HEK-293 cell lysate with migalastat
Assay type in all cases: cell-based
[1] = target: T1, α-Gal A mutant form p.Gly183Asp (c.548 G > A) (Homo sapiens, UniProt P06280, G183D)
T1 construct: expressed in transfected cells; host or cells: HEK-293
T1 sequence (P06280 32-429 G183D): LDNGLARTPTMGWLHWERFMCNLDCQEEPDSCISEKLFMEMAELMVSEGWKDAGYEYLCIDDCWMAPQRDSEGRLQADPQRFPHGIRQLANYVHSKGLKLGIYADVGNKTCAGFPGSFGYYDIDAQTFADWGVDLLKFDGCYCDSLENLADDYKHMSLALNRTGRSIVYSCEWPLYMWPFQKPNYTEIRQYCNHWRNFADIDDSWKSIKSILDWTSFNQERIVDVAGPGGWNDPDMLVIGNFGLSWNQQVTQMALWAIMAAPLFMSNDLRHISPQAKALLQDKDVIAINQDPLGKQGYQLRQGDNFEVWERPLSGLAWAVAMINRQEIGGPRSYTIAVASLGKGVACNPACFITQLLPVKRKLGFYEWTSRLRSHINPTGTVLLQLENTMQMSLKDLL
How it was run: (§1)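 Transient HEK-293 expression of mutant α-Gal A; ±migalastat 17 nM–1 mM, 4–5 d; lysate α-Gal A by 4-MU-α-Gal fluorescence or western blot.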

[2] = target: T2, α-Gal A mutant form p.Ala156Thr (c.466 G > A) (Homo sapiens, UniProt P06280, A156T)
T2 construct: expressed in transfected cells; host or cells: HEK-293
T2 sequence (P06280 32-429 A156T): T1 sequence (P06280 32-429 G183D) with A125T, D152G
How it was run: as §1

[3] = target: T3, α-Gal A mutant form p.Pro259Arg (c.776 C > G) (Homo sapiens, UniProt P06280, P259R)
T3 construct: expressed in transfected cells; host or cells: HEK-293
T3 sequence (P06280 32-429 P259R): T1 sequence (P06280 32-429 G183D) with D152G, P228R
How it was run: as §1

[4] = target: T4, α-Gal A mutant form p.Met187Ile (c.561 G > A) (Homo sapiens, UniProt P06280, M187I)
T4 construct: expressed in transfected cells; host or cells: HEK-293
T4 sequence (P06280 32-429 M187I): T1 sequence (P06280 32-429 G183D) with D152G, M156I
How it was run: as §1

[5] = target: T5, α-Gal A mutant form p.Pro293Thr (c.877 C > A) (Homo sapiens, UniProt P06280, P293T)
T5 construct: expressed in transfected cells; host or cells: HEK-293
T5 sequence (P06280 32-429 P293T): T1 sequence (P06280 32-429 G183D) with D152G, P262T
How it was run: as §1

[6] = +10 μM migalastat, HEK-293 cell lysate, mean ± SEM, n = 20
[7] = HEK293, 10 μM migalastat minus baseline, read-out: Absolute increase at 10 μM (% WT)

OC[C@H]1NC[C@H](O)[C@@H](O)[C@H]1O [migalastat]
α-Gal A activity at 10 μM (fold over baseline) ([1]; 10 μM migalastat): 29.31 fold over baseline
+Migalastat α-Gal A activity [1, 6]: 6074 ± 212 nmol/mg/h
+Migalastat α-Gal A activity % WT [1, 6]: 19.1 ± 1.0 % WT and 19.1 ± 10 % WT
activation at 10 µM [1, 7]: 18.4%
α-Gal A activity at 10 μM (fold over baseline) ([2]; 10 μM migalastat): 7.75 fold over baseline
+Migalastat α-Gal A activity [2, 6]: 7034 ± 289 nmol/mg/h
+Migalastat α-Gal A activity % WT [2, 6]: 21.9 ± 0.9 % WT
activation at 10 µM [2, 7]: 19.1%
α-Gal A activity at 10 μM (fold over baseline) ([3]; 10 μM migalastat): 2.64 fold over baseline
+Migalastat α-Gal A activity [3, 6]: 17645 ± 515 nmol/mg/h
+Migalastat α-Gal A activity % WT [3, 6]: 60.3 ± 3.8 % WT
activation at 10 µM [3, 7]: 37%
α-Gal A activity at 10 μM (fold over baseline) ([4]; 10 μM migalastat): 6.10 fold over baseline
+Migalastat α-Gal A activity [4, 6]: 10824 ± 555 nmol/mg/h
+Migalastat α-Gal A activity % WT [4, 6]: 30.7 ± 1.1 % WT
activation at 10 µM [4, 7]: 25.6%
α-Gal A activity at 10 μM (fold over baseline) ([5]; 10 μM migalastat): 19.60 fold over baseline
+Migalastat α-Gal A activity [5, 6]: 4488 ± 327 nmol/mg/h
+Migalastat α-Gal A activity % WT [5, 6]: 13.3 ± 1.1 % WT
activation at 10 µM [5, 7]: 12.7%
